This is an account of results in patent US12427143B2, “Pharmaceutical composition for treating or preventing aging or age-related diseases” (INU RESEARCH & BUSINESS FOUNDATION, priority 2021, dated 2025).

Residue numbers refer to the chain shown, from its start.

One test deals with senescent HDF cells. As to the kind of experiment: Compound screening: cell proliferation of senescent fibroblasts (GelGreen fluorescence). Format: cell-based, human. The following applies: 27 drugs at 4 μM, 12 days, senescent HDF 1,000 cells per well. Here is the method:
FIG. 1 depicts the results of potential target screening for recovering senescence. Each of compounds was treated to a 96 well plate seeded with 1000 senescent cells (4 μM). After incubation for 12 days, the cells were stained with Gel green solution (1:1,000 in D.W.). Cell number was determined via fluorescence measurement using fluorescence microplate reader (excitation/emission 485 nm/535 nm).
Senescent fibroblasts were grown in 96-well plates at a density of 1,000 cells per well. Components from the library were diluted to a final concentration of 4 μM and added to the wells every 4 days. 12 days after drug treatment, cells were washed twice with phosphate-buffered saline (PBS) and lysed in 50 μl of 0.2% SDS. The plates were incubated at 37° C. for 1 h. GelGreen® Nucleic Acid Gel Stain (150 μl) (1:1,000 in DW; 41005; Biotium, Fremont, CA, USA) was added to the wells. Cell number was determined by measuring fluorescence intensity with VICTOR Multilabel Plate Reader (2030-0050; PerkinElmer, Waltham, MA, USA). The mean and standard deviation from six replicates were determined for each of experimental groups.
Cellular senescence is characterized by cell cycle arrest, and the inventors identified a compound recovering cell cycle arrest with additional anti-senescence effects. […] Relative cell proliferation was measured in terms of the senescent HDF. […]

In test [1] the target is T1, Myc-14-3-3 zeta/delta(WT) / ATP synthase alpha and beta (Homo sapiens, UniProt P63104).
T1 construct: expressed in transfected cells; host or cells: HEK293T (CRL-11268; ATCC)
T1 sequence (P63104 1-245): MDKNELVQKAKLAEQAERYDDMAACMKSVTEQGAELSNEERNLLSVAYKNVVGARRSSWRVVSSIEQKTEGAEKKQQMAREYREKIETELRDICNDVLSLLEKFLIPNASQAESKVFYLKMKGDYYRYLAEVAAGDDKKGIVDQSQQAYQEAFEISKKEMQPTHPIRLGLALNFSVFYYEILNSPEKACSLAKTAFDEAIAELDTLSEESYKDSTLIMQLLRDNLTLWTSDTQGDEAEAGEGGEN
Nature of the test: Co-immunoprecipitation of ATP synthase alpha and beta with Myc-14-3-3 zeta/delta(WT). Format: cell-based. The conditions noted are these: HEK293T, 4 μM. Here is the method:
(§1) pCMV-Myc-14-3-3 zeta/delta(WT) plasmid and pCMV-Myc-14-3-3 zeta/delta(S58A) plasmid were transfected with HEK293T(CRL-11268; ATCC). […] The treated cells were digested with 0.1% NP-40 cell lysis buffer to destroy cells, and IP (immunoprecipitation) of MIC60 subunit was performed using AccuNanoBeadm Streptavidin Magnetic Nanobeads (TA-1015-1; Bioneer, Daejeon, Korea). IP of 14-3-3 zeta/delta(WT) and 14-3-3 zeta/delta(S58A) were performed using anti-Myc tag antibody.
(§2) The PCR fragment of 14-3-3 zeta/delta (WT) and 14-3-3 zeta/delta (S58A) were separately cloned into pCMV-Myc-puromycin. HEK293T (CRL-11268; ATCC) were transfected with Lipofectaminem 2000 Transfection Reagent (11668-019; Thermo Scientific), Selection was carried out with puromycin 3 μg/ml.
(§3) Therefore, the 58th serine region of 14-3-3 zeta/delta was mutated to alanine to investigate its function. Myc-tag 14-3-3 zeta/delta(WT) vector and 14-3-3 zeta/delta(S58A) vector were transfected and overexpressed with HEK293T. Additionally, their interactions with endogenous ATP synthase alpha and beta were confirmed by IP (FIG. 4B).
(§4) As a result, ATP synthase alpha and beta proteins, which interacted with Myc-14-3-3 zeta/delta(WT) were increased KB1541 was treated to HEK293T at a concentration of 4 μM (FIG. 5B).

In test [2] the target is T2, Myc-14-3-3 zeta/delta (S58A) / ATP synthase alpha and beta (Homo sapiens, UniProt P63104, S58A).
T2 construct: expressed in transfected cells; host or cells: HEK293T (CRL-11268; ATCC)
T2 sequence (P63104 1-245 S58A): T1 sequence (P63104 1-245) with S58A
As to the kind of experiment: Co-immunoprecipitation of ATP synthase alpha and beta with Myc-14-3-3 zeta/delta(S58A). Format: cell-based. The conditions noted are these: HEK293T, performed in the same way (4 μM). The method, then: as §1, §2, §3, §4

Test [3] concerns senescent HDF. As to the kind of experiment: Measurement of cellular ATP levels (oxphos and glycolysis portion). In kind it is cell-based, human. The conditions noted are these: versus senescent HDF. The method, then:
Cells were incubated in medium with or without 20 μM oligomycin for 24 h and then lysed with lysis buffer. ATP content was measured using a ViaLight Plus Kit (LT07-221; Lonza, Basel, Switzerland) according to the manufacturer's instructions. DNA content was measured using AccuBlue broad range dsDNA quantitation kit (31007; Biotium, Fremont, CA, USA). For measurements of relative ATP content, the luminescence of each sample was normalized to the DNA content.
The inventors studied the changes in ATP production when assembling the ATP subunit based on the result of FIG. 4B. Oxphos portion was measured for identifying ATP resulting from oxidative phosphorylation in mitochondria cristae (FIG. 4C).
Moreover, glycolysis portion was measured for assessing the amount of ATP during glycolysis (FIG. 4D).

In test [4] the test system is senescent HDF. As to the kind of experiment: Mitochondrial ROS by MitoSOX flow cytometry. In kind it is cell-based, human. The conditions noted are these: versus senescent HDF. Here is the method:
(§5) FIG. 5 depicts the result of recovery of mitochondria based on the increased production of ATP. (A and B) Flow cytometric analysis of mitochondrial ROS and mitochondrial mass analysis using Mito tracker Green and MitoSOX; (C and D) measurement of non-glycotic glycolysis level and glycotic glycolysis level; (E) flow cytometry analysis of autophagosome level using CYTO-ID Green assay.
(§6) For quantification of mitochondrial ROS, the cells were incubated in medium containing 5 μM MitoSOX (M36008; Life Technologies, Carlsbad, CA, USA) for 30 min at 37° C. For quantification of mitochondrial mass, the cells were incubated in medium containing 50 nM MitoTracker green (M22426; Life Technologies) for 30 min at 37° C. After staining, for the purpose of measuring mitochondrial membrane potential, cells were prepared for FACS analysis.
Reactive oxygen species (ROS) was identified and measured, which damages homeostasis and metabolism of normal mitochondria.
In general terms: A flow cytometer gives signals particle by particle.

Test [5] concerns senescent HDF. As to the kind of experiment: Mitochondrial mass by MitoTracker green flow cytometry. In kind it is cell-based, human. The conditions noted are these: HDF treated with compound. The method, then:
as §5, §6
(§7) The capability of removing organelles having dysfunction in senescent cells is deteriorated. Recovery of autophagy prevents accumulation of dysfunctional mitochondria and resulting in signs of senescence recovery. Mitochondrial mass and autophagy were measured for identifying the function. Mitochondrial mass decreased in HDF treated with KB1541(FIG. 5B). Moreover, autophagy level increased in HDF treated with KB1541(FIG. 5C).

In test [6] the test system is senescent HDF. Nature of the test: Autophagy level (Cyto-ID flow cytometry). Format: cell-based, human. The conditions noted are these: HDF treated with compound. Here is the method: as §5
Cells were incubated in medium containing 20 μM chloroquine (CQ; C6628, Sigma-Aldrich). At 24 h after incubation, cells were further stained with Cyto-ID staining solution and 50 nM LTDR (ENZ-51031-0050; ENZO, Lausen, Switzeland) for 30 min and prepared for FACS analysis. To measure background autofluorescence, cells were incubated in medium without dye. Fluorescence from Cyto-ID was normalized with fluorescence from LTDR. Autophagic flux was calculated using the following equation: ΔMFI Cyto-ID=MFI Cyto-ID (+CQ)/MFI Cyto-ID (−CQ).
as §7

The test system of test [7] is senescent HDF. Nature of the test: Seahorse analysis, ECAR (dependency of glycolysis). In kind it is cell-based, human. The conditions noted are these: HDF treated with compound, regardless of glucose.
From the text: as §5
The XFe24 flux analyzer (Seahorse Bioscience XFe24 Instrument) was used according to the manufacturer's protocol. Briefly, 5×10^4 cells were distributed into each well of an XFe24 cell-culture plate from the XF24 FluxPak (100850-001; Seahorse Bioscience, North Billerica, MA, USA) and then cultured in a 5% CO2 incubator at a temperature of 37° C. for 16 h. Next, the medium was replaced by XF Assay medium (102365-100; Seahorse Bioscience), which lacked glucose, and the cells were then cultured for another 1 h in the same incubator. The extracellular acidification rate (ECAR) was measured using an XF Glycolysis Stress Test kit (102194-100; Seahorse Bioscience). ECAR was reported in mpH/min. As a metabolic shifter, aconitase inhibitor deferiprone (379409-5G; Sigma-Aldrich) was used.
Lastly, dependency of glycolysis was measured via ECAR.
Dependency of glycolysis in HDF treated with KB1541 decreased regardless of glucose like ATP study (FIGS. 5D and E).

The subject of test [8] is senescent HDF mitochondria. Nature of the test: Transmission electron microscopy of mitochondrial cristae. Format: cell-based, human. The source says: FIG. 6 depicts the result of mitochondria recovery induced by KB1541. (A) HDF mitochondria observed in transmission electron microscope 21 days after treated with KB1541. From left: Senescent (DMSO), Senescent (KB1541); (B) the length of cristae observed in transmission electron microscope.
The inventors studied level to cristae of mitochondria 12 days after senescent HDF treatment and identified senescence recovery. […] In graph where the images were quantified and represented, the length of cristae increased when treated with KB1541(FIG. 6B).

Consider `FC(F)(F)c1ccc(-c2nc3c(N4CCCC4)nc4ccccc4c3o2)cc1` [KB1541], for which the “Relative cell proliferation, rank among screened compounds” value in the test with senescent HDF cells is “most effective compound on cell proliferation”. For the same molecule, the “ATP synthase alpha and beta proteins interacting with Myc-14-3-3 zeta/delta(WT)” value in [1] is reported as “increased”. Moreover, the “ATP synthase alpha and beta proteins interacting with Myc-14-3-3 zeta/delta (S58A)” value in [2] is on record as “did not change significantly”. Further, in the test on senescent HDF [3], the “Glycolysis portion of ATP production” value is “reduced compared to senescent HDF” and the “Oxphos portion of ATP production” value is given as “higher than senescent HDF”. Also, in the test with senescent HDF [4], the “Reactive oxygen species (mitochondrial ROS)” value was “decreased in half”. The Mitochondrial mass entry with senescent HDF [5] is reported as “decreased”. For the same molecule, the Autophagy level result in the test with senescent HDF [6] is “increased”. For the same molecule, the “Dependency of glycolysis (ECAR)” value in the test with senescent HDF [7] is “decreased”. The “Folds (cristae) of mitochondria in electron microscope images” value in test [8] (12 days after treatment) is recorded as “restored as well as increased”. In addition, the Length of cristae entry in test [8] (quantified TEM images) is reported as “increased”.
